This note sets out measurements from patent US7691416B2, “Methods of treating vascular disease” (priority 2002, dated 2010).

Experiment [1] concerns intimal hyperplasia in Brown Norway aortic segments transplanted into Lewis rats. In words: Aortic transplant model, histomorphometric analysis of intimal hyperplasia. Conditions: CO 250 ppm after transplantation and for 56 days; vs air-exposed recipients; day 56; p<0.001. In kind it is in vivo, rat. An excerpt: Animals. Male (250-350 g) Brown Norway rats (RT1^n) were used as aortic graft donors and male (250-350 g) Lewis rats (RT11) as recipients. Dawley (400-450 g) rats were used in the balloon injury model. Adult male C57BL/6, C57/S129, p21^−/− and p53^−/− null mice were purchased from Jackson Laboratory (Bar Harbor, Me.). mkk3^(−/−) null mice were generated as described Lu et al. (EMBO. 18:1845-1857 (1999)). The inos^−/− and enos^−/− mice were bred at the University of Pittsburgh. Aortic transplant model. Aortic transplantation was performed as described in Shimizu et al. (Nat. Med. 7:738-741 (2001)). Briefly, 3 to 4 cm of descending aorta was harvested from the donor and implanted between the renal arteries and the aortic bifurcation of the recipient. Both edges of the native abdominal aorta were ligated. Balloon injury model. Balloon angioplasty was carried out as described in Murakami et al. (Atherosclerosis 157:361-368 (2001)). […] [^3H]thymidine incorporation was measured by scintillation spectroscopy and presented as mean counts/min/well. […] Areas from eight to ten captured images were calculated using digital imaging software as number of pixels corresponding to those areas. Twenty-four to forty-eight sections from each group were statistically analyzed with SPSS software version 10. […]

For another experiment, the system named is mouse SMC. In words: SMC proliferation, [3H]thymidine incorporation. In kind it is cell-based. Conditions: for SMC proliferation / Inhibition of SMC proliferation versus air treated controls: CO 250 ppm. The text has this: Animals. Male (250-350 g) Brown Norway rats (RT1^n) were used as aortic graft donors and male (250-350 g) Lewis rats (RT11) as recipients. Dawley (400-450 g) rats were used in the balloon injury model. Adult male C57BL/6, C57/S129, p21^−/− and p53^−/− null mice were purchased from Jackson Laboratory (Bar Harbor, Me.). mkk3^(−/−) null mice were generated as described Lu et al. (EMBO. 18:1845-1857 (1999)). The inos^−/− and enos^−/− mice were bred at the University of Pittsburgh. Aortic transplant model. Aortic transplantation was performed as described in Shimizu et al. (Nat. Med. 7:738-741 (2001)). Briefly, 3 to 4 cm of descending aorta was harvested from the donor and implanted between the renal arteries and the aortic bifurcation of the recipient. Both edges of the native abdominal aorta were ligated. Balloon injury model. Balloon angioplasty was carried out as described in Murakami et al. (Atherosclerosis 157:361-368 (2001)). Briefly, a 2 Fr. arterial embolectomy catheter (Baxter, Chicago, Ill.) was inserted into the common carotid artery, and injury was created by inflating the balloon to 5 atmospheres of pressure for 5 minutes. The arteries were flushed and the external carotid artery was ligated, ensuring return of blood flow through the common and internal carotid arteries. Injury of the vessel wall and subsequent pathological analysis was made in a manner that was blinded to the treatment group. CO exposure. CO was delivered to animals as described in Otterbein et al. (Nat. Med. 6:422-428 (2000)). Graft donors and recipients were exposed to CO (250 ppm) for two days before transplantation and for 56 days immediately following transplantation. In the balloon injury model, rats received either no pretreatment or were exposed to CO (250 ppm) for one hour prior to injury. Following surgery rats were housed in room air for two weeks. Cells. Primary mouse and rat smooth muscle cells (SMC) were isolated and cultured as described in Laubach et al. (Proc Natl Acad Sci USA 92:10688-9 (1995)). Mouse SMC isolated from HO-1^−/− mice were obtained as described in Duckers et al. (Nat. Med. 7:693-698 (2001)). Cell treatment and reagents. Guanylate cyclase inhibitor 1H(1,2,4) oxadiazolo(4,3-a)quinoxalin-1 (ODQ; Calbiochem-Novabiochem, San Diego, Calif.; 10-100 μM) and p38 MAPK inhibitor pyridinyl imidazol SB203580 (Calbiochem; 5-20 μM) were dissolved in DMSO. The cGMP analogue 8-bromo-cGMP sodium salt (8-Br-cGMP; Sigma-Aldrich, St. Louis, Mo.; 10-100 μM) and the PKG inhibitor (10-100 μM; Alexis Biochemicals) were dissolved in water. Cell counts and [^3H] thymidine incorporation. Rat and mouse SMC were isolated and cultured as described in Peyton et al. (Blood 99:4443-4448 (2002)). Proliferation assays were carried out as described in Petkova et al. (J Biol. Chem. 276:7932-7936 (2001)). For [^3H] thymidine incorporation studies, cells were serum-starved overnight and then stimulated with 10% serum containing 5 μCi/ml [^3H] thymidine (New England Nuclear, Boston Mass.). [^3H]thymidine incorporation was measured by scintillation spectroscopy and presented as mean counts/min/well. Histomorphometric analysis. Aortic grafts and carotid arteries were harvested at 56 and 14 days respectively. Vessels were fixed, embedded, and serially sectioned (5μ) in toto. Every third slide was stained with Hematoxylin and Eosin (H&E) for histomorphometric analyses. In both models, one or two images per slide at a resolution of 1520×1080 pixels were captured at a magnification of 25× with a Zeiss microscope (Axioskop, Iowa City, Iowa), RT color SPOT (Diagnostic Instrument, Inc., Saint Joseph, Mich.) and Windows NT (Compaq Computer) using Adobe Photoshop version 5.5 software. Areas from eight to ten captured images were calculated using digital imaging software as number of pixels corresponding to those areas. Twenty-four to forty-eight sections from each group were statistically analyzed with SPSS software version 10. Immunostaining and cell population histomorphometric analysis. […]
In general terms: Incorporation of labelled thymidine or its analogues reports DNA synthesis.

In the case of `[C-]#[O+]` [CO, carbon monoxide], the “Intimal hyperplasia, reduction versus control” value in experiment [1] is listed as 61.4±12.9%. Moreover, the SMC proliferation result is “significantly inhibited” in the experiment with mouse SMC (SMC from ho-1-/- mice); “not suppressed” in the experiment with mouse SMC (SMC from p21Cip1 deficient mice (p21-/-)); “inhibited proliferation” in the experiment on mouse SMC (SMC from p53-/- mice, similar extent as wild type). Also, the “Inhibition of SMC proliferation versus air treated controls” value in the experiment on mouse SMC (SMC from nos-2-/- (iNOS) mice) was 51±25%; in the experiment on mouse SMC (SMC from nos-3-/- (eNOS) mice) it was 54±11%; in the experiment on mouse SMC (SMC from wild type mice), 51±12.9%. In addition, in the experiment with mouse SMC (cells from mkk3-/- mice exposed to CO), the Cell proliferation result is given as “did not inhibit proliferation”.
